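Growth conditions: 96-well plates. Treatment: test compound, 48 hours, 5 concentrations. Analysis: linear interpolation between bracketing concentrations; unreached endpoints set to highest concentration. Abbreviation: GI50, concentration required for 50% inhibition of growth. At the TGI there is no net growth.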

In the first experiment the test system is SN12C renal. The experiment is described as follows: NCI-60 cell line screen, 48 h.
In turn, `O=S(=O)(C1=CC(S(=O)(=O)c2ccccc2)CN(Cc2ccccc2)C1c1cccc2ccccc12)c1ccccc1` (stereo unspecified) displayed a TGI of more than 69 µM.
The same measure, in the same setting: for `O=C1C=C(Nc2ccccc2C(=O)CC(=O)C(=O)Nc2cccc([N+](=O)[O-])c2)c2ccccc2C1=O` the value was 81.8 µM; for `O=C(Nc1ccc(Cl)cc1)C1C(=O)C(=O)N(c2ccc(Cl)cc2)C1=O` (stereo unspecified), more than 100 µM.
On to `CCC[CH2][Sn]([CH2]CCC)([O]C(=O)CN)[O]C(=O)CN`, for which the GI50 is 57.2 µM and the TGI is more than 100 µM.
Compound `O=C(Nc1ccc(C(F)(F)F)cc1[N+](=O)[O-])C(=O)C1NC(=S)NC1=O` (stereo unspecified) registered a TGI of 5.05 µM.
The same measure, in the same setting: for `COc1cc(NCC(C#N)C#N)ccc1N=Nc1ccc(Cl)cc1` the value was more than 100 µM.
The same measure, in the same setting: for `CC(=O)c1ccc(NC(=O)/C(CC(=O)c2sc(-c3cccnc3)nc2C)=N/NC(N)=O)cc1` the value was more than 100 µM.
`Cc1ccc(S(=O)(=O)OC2CC=CC2)cc1` yielded a TGI of more than 100 µM.
`C=CC[P@]1(=O)O[C@H](c2ccccc2)[C@H](C)N1C` yielded a TGI of more than 100 µM.
In turn, `O=C(Nc1cccc(O)c1)C(=O)C1C(=O)NC(=S)NC1=O` came in with a TGI of more than 100 µM.
On the same count and under the same terms, for `O=C1N/C(=C\[N+](=O)[O-])c2ccccc21` the value was more than 100 µM.
On the same count and under the same terms, then `COC(=O)C(=O)CC(=O)CCn1[nH]c(=O)c(Cl)c(Cl)c1=O`, with more than 100 µM; and `OCC12C=CC(C1)c1ccccc12` (stereo unspecified), with more than 100 µM.
Same read-out and setting: then `COc1ccc(NC(=O)CC/C(CC(=O)c2ccco2)=N/NC(=O)C(N)=O)cc1`, with more than 100 µM; and `NC(CCCC(N)P(=O)(O)O)P(=O)(O)O` (stereo unspecified), with more than 100 µM.
For the compound `CCOC(=O)[CH-]C(=O)C12CC3CC(CC(C3)C1)C2.CCOC(=O)[CH-]C(=O)C12CC3CC(CC(C3)C1)C2.CC[O-].CC[O-].[Ti+4]`, the GI50 is more than 100 µM and the TGI was more than 100 µM.
On to `CC(=O)C1C(c2ccccc2)C2(C)OC(=O)C(C#N)C12C` (stereo unspecified), for which the TGI is more than 100 µM.
As for `C[C@]12CC=CC(=O)[C@@]1(C)CCC(=O)C2`, the TGI is more than 100 µM.
`CC(=O)Oc1cc2c(cc1OC(C)=O)C1(C)CCC2(C)c2cc(OC(C)=O)c(OC(C)=O)cc21`: the TGI is more than 100 µM.

A further experiment relates to OVCAR-5 ovarian. Briefly: NCI-60 cell line screen, 48 h.
With `C[C@]12CCc3sc(Nc4ccc(OC(F)(F)F)cc4)nc3C1=CC[C@@H]1[C@@H]2CC[C@]2(C)C(=O)CC[C@@H]12`, the GI50 is 9.06 µM and the TGI was determined as 40.3 µM.
For the compound `CCC1=CCN(c2cc(C)ccn2)OC1c1ccc(OC)cc1` (stereo unspecified), the TGI was more than 100 µM.
In turn, `CC(=O)Oc1c(C)c(-c2ccccc2)c(C)c(-c2ccccc2)c1C(=S)c1ccccc1` had a TGI of more than 100 µM.
The same measure, in the same setting: for `N#CCC(=O)N/N=C1/C(=O)N(c2ccc(Cl)cc2)C(=O)C(=O)C1c1nc2ccccc2s1` (stereo unspecified) the value was more than 100 µM; for `CCCCCCCCCCCC(=O)OCCOCCOCCOCCOCCOC(=O)CCCCCCCCCCC`, more than 100 µM; for `COc1ccc(C=O)cc1O[Si](C)(C)C(C)(C)C`, more than 100 µM.
Still for that read-out and setting: for `CC1(O)C(C)(O)C2(C)O[Te]3(OC12C)OC1(C)C(C)(O)C(C)(O)C1(C)O3` (stereo unspecified) the value was 29.4 µM; for `O=C1COc2cc(NC(=S)Nc3ccccc3)ccc2N1`, more than 100 µM.
Regarding `CCCCCCCCn1ccc2cc(NC(=O)Cn3cc(CN4CCCCCC4)nn3)ccc21`, the GI50 was 1.82 µM and the TGI was 3.86 µM.
As for `O=S(=O)(C1=CC(S(=O)(=O)c2ccccc2)CN(Cc2ccccc2)C1c1cccc2ccccc12)c1ccccc1` (stereo unspecified), the TGI was more than 69 µM.
On the same count and under the same terms, then `O=C1C=C(Nc2ccccc2C(=O)CC(=O)C(=O)Nc2cccc([N+](=O)[O-])c2)c2ccccc2C1=O`, with more than 100 µM.
For the compound `O=C(Nc1ccc(Cl)cc1)C1C(=O)C(=O)N(c2ccc(Cl)cc2)C1=O` (stereo unspecified), the TGI is more than 100 µM.
Turning to `CCC[CH2][Sn]([CH2]CCC)([O]C(=O)CN)[O]C(=O)CN`, the GI50 was more than 100 µM and the TGI is more than 100 µM.
As to `O=C(Nc1ccc(C(F)(F)F)cc1[N+](=O)[O-])C(=O)C1NC(=S)NC1=O` (stereo unspecified), the TGI is more than 100 µM.
The compound `COc1cc(NCC(C#N)C#N)ccc1N=Nc1ccc(Cl)cc1` came in with a TGI of 44.4 µM.
The same measure, in the same setting: for `CC(=O)c1ccc(NC(=O)/C(CC(=O)c2sc(-c3cccnc3)nc2C)=N/NC(N)=O)cc1` the value was more than 100 µM; for `Cc1ccc(S(=O)(=O)OC2CC=CC2)cc1`, more than 100 µM; for `C=CC[P@]1(=O)O[C@H](c2ccccc2)[C@H](C)N1C`, more than 100 µM.
Consider `O=C1N/C(=C\[N+](=O)[O-])c2ccccc21`, for which the TGI was more than 100 µM.
As to `COC(=O)C(=O)CC(=O)CCn1[nH]c(=O)c(Cl)c(Cl)c1=O`, the TGI is more than 100 µM.
On the same count and under the same terms, then `OCC12C=CC(C1)c1ccccc12` (stereo unspecified), with more than 100 µM; and `COc1ccc(NC(=O)CC/C(CC(=O)c2ccco2)=N/NC(=O)C(N)=O)cc1`, with more than 100 µM.
On to `CC(=O)C1C(c2ccccc2)C2(C)OC(=O)C(C#N)C12C` (stereo unspecified), for which the TGI was more than 100 µM.
Same read-out and setting: then `C[C@]12CC=CC(=O)[C@@]1(C)CCC(=O)C2`, with more than 100 µM; and `CC(=O)Oc1cc2c(cc1OC(C)=O)C1(C)CCC2(C)c2cc(OC(C)=O)c(OC(C)=O)cc21`, with 80.9 µM.

The test system of the next experiment is SK-MEL-2 melanoma. Briefly: NCI-60 cell line screen, 48 h.
As to `C[C@]12CCc3sc(Nc4ccc(OC(F)(F)F)cc4)nc3C1=CC[C@@H]1[C@@H]2CC[C@]2(C)C(=O)CC[C@@H]12`, the GI50 is 3 µM and the TGI was found to be 11.6 µM.
Consider `CCC1=CCN(c2cc(C)ccn2)OC1c1ccc(OC)cc1` (stereo unspecified), for which the TGI came to 41.4 µM.
Same read-out and setting: then `CC(=O)Oc1c(C)c(-c2ccccc2)c(C)c(-c2ccccc2)c1C(=S)c1ccccc1`, with more than 100 µM; and `N#CCC(=O)N/N=C1/C(=O)N(c2ccc(Cl)cc2)C(=O)C(=O)C1c1nc2ccccc2s1` (stereo unspecified), with more than 100 µM; and `CCCCCCCCCCCC(=O)OCCOCCOCCOCCOCCOC(=O)CCCCCCCCCCC`, with more than 100 µM.
Compound `COc1ccc(C=O)cc1O[Si](C)(C)C(C)(C)C` yielded a TGI of more than 100 µM.
`CC1(O)C(C)(O)C2(C)O[Te]3(OC12C)OC1(C)C(C)(O)C(C)(O)C1(C)O3` (stereo unspecified) showed a TGI of more than 100 µM.
On to `O=C1COc2cc(NC(=S)Nc3ccccc3)ccc2N1`, for which the TGI was more than 100 µM.
On to `CCCCCCCCn1ccc2cc(NC(=O)Cn3cc(CN4CCCCCC4)nn3)ccc21`, for which the GI50 was 1.93 µM and the TGI came to 3.6 µM.
The compound `O=S(=O)(C1=CC(S(=O)(=O)c2ccccc2)CN(Cc2ccccc2)C1c1cccc2ccccc12)c1ccccc1` (stereo unspecified) had a TGI of more than 69 µM.
Turning to `O=C1C=C(Nc2ccccc2C(=O)CC(=O)C(=O)Nc2cccc([N+](=O)[O-])c2)c2ccccc2C1=O`, the TGI is more than 100 µM.
Same read-out and setting: then `O=C(Nc1ccc(Cl)cc1)C1C(=O)C(=O)N(c2ccc(Cl)cc2)C1=O` (stereo unspecified), with more than 100 µM.
For the compound `CCC[CH2][Sn]([CH2]CCC)([O]C(=O)CN)[O]C(=O)CN`, the GI50 is 18.5 µM and the TGI was determined as 48.8 µM.
With `O=C(Nc1ccc(C(F)(F)F)cc1[N+](=O)[O-])C(=O)C1NC(=S)NC1=O` (stereo unspecified), the TGI is more than 100 µM.

(Values after PubChem BioAssay (NCI).)
